Results on 1 molecule are retold here after PMC9313812, “The Pseudo‐Natural Product Rhonin Targets RHOGDI” (Angewandte Chemie (International Ed. in English), 2022).

The target of experiment [1] is T1, RHOGDI1 (Homo sapiens, UniProt P52565).
T1 construct: GST; made in house; host or cells: E. coli
As to the kind of experiment: Catch-and-release proteomics with lysine-reactive probe STPyne. It counts as binding. The following applies: 100 µM compound, 30 µM STPyne, HEK293T lysate. As to the method: Supplementary Table S11: Extracted list of STPyne PC cleaved RHOGDI peptides identified by catch-and-release proteomics. HEK293T lysate overexpressing RHOGDI-F was treated with 100 µM Rhonin or DMSO, followed by 30 µM STPyne. Asterisks indicate […]
(also on this page, place not known: S 11: catch -and-release RHOGDI -F DMS O, Modified lysine position Average ratio intensity STPyne-Rhonin-100 µM/DMSO SD ratio intensity STPyne-Rhonin-100 µM/DMSO 15) […]
(1 picture or pasted object on this page, not shown here)
Samples were acidified to a final concentration of 5% acetic acid, desalted over a self-packed C18 spin column, and dried. Peptides were resuspended in water with 0.1 % formic acid (FA) and analyzed using EASY-nLC 1200 nano-UHPLC coupled to Q Exactive HF-X Quadrupole-Orbitrap mass spectrometer (Thermo Scientific). The chromatography column consisted of a 45 cm long, 75 μm i.d. microcapillary capped by a 5 μm tip and packed with ReproSil -Pur 120 C18-AQ 2.4 μm beads (Dr. Maisch GmbH). LC solvents were 0.1 % FA in water (Buffer A) and 0.1 % FA in 90 % MeCN: 10 % water (Buffer B). […] The MS data was analyzed with MaxQuant[11] and searched against the human proteome (Uniprot), a common list of contaminants (included in MaxQuant) and the amino acid sequence of recombinant RHOGDI. […]

Experiment [2] has as its system NIH/3T3 cells. Put plainly: Detection of cilia (acetylated tubulin staining). It counts as cell-based. On the procedure:
Supplementary Figure S6 (related to Figure 5). Characterization of compound 7l (Rhonin).
(a) GLI-responsive reporter gene assay in SHH-LIGHT2 cells. (b) Influence of Rhonin on the expression of Alpl. C3H10T1/2 cells were treated with 1.5 µM purmorphamine and the compounds for 96 h prior to RT-qPCR to detect Alpl mRNA levels. Data were normalzed to Gapdh and Ap3d1 gene levels and are mean values (n = 3) ± SD. (c) Detection of cilia in NIH/3T3 cells. NIH/3T3 cells were cultured in serum reduced (0.5 % FCS) medium for 24 h to induce cilia formation, followed by a pre-treatment of cells with different concentrations of 7l or Vismodegib or DMSO as a control in serum reduced medium. After another 24h cells were treated with 2 µM purmorphamine or DMSO as a control and with different concentrations of 7l, or Vismodegib or DMSO as a control for 24 h. […]
cilia were stained with an antibody against acetylated tubulin. SMO was marked with an anti-SMO antibody and DAPI was used to stain the nuclei. For quantification of cilia, at least 100 cilia per condition and biological replicate were analyzed for the intensity of anti-acetylated tubulin antibody staining. […] Statistical significance was evaluated using an unpaired t-test with a confidence interval of 95 % (p ≤ n.s.). […]

T1 sequence (P52565 whole entry): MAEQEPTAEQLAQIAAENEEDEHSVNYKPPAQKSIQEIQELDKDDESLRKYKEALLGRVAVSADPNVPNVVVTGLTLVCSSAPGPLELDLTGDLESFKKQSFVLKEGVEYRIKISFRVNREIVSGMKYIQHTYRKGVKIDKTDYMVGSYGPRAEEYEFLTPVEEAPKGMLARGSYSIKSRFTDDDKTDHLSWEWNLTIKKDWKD

Take `COC(=O)C1(C(CC(=O)c2cccnc2)c2ccccc2)N=C(c2ccc(Br)cc2)C2C(=O)N(C)C(=O)C21` (centres unmarked) [7l]: in experiment [1], the “STPyne labeling of RHOGDI1 lysines in presence of compound (in words)” value was “lysines 186 and 199 in RHOGDI1 were less efficiently labeled”. The “Cilia formation (in words)” value in experiment [2] is recorded as “cilia formation was not affected”.
